According to ChEMBL document CHEMBL6177993, “De Novo 3-(Phenylcarbamoyl) Benzoate Analogues: Efficacy against Multidrug-Resistant S. aureus and Elucidation of the Biodistribution Profile” (J Med Chem, 2025):
In brackets after ≈: the same amount, converted by molar mass. Activity calls are given as the source filed them. The rule behind the calls is not given here.

Assays:
[1] = Drug distribution in female BALB/c mouse spleen measured after 24 hrs; format: ADME, tissue-based; details: in vivo
[2] = Toxicity in female BALB/c mouse assessed as effect on heart measured after 24 hrs by H and E staining based analysis; format: tissue-based; details: in vivo
Staphylococcus aureus [3] = assay: Antibacterial activity against Staphylococcus aureus ATCC 29213 infected in female BALB/c mouse skin infection model assessed as reduction in number of bacterial cells in skin at 10 times MIC pre-infected with bacteria followed by compound addition and measured after 24 hrs; format: functional, organism-based
Bacillus subtilis = assay: Antibacterial activity against Bacillus subtilis IITKSM1 assessed as reduction in bacterial growth measured after 18 to 24 hrs by broth microdilution method; format: functional; details: time 18-24 hrs
[4] = Solubility of the compound in DMSO/DMF; format: physicochemical
Staphylococcus aureus [5] = assay: Inhibition of biofilm in Staphylococcus aureus ATCC 29213 at 0.5 times MIC measured after 12 hrs by crystal violet staining based analysis relative to control; format: functional
[6] = Drug distribution in female BALB/c mouse heart measured after 24 hrs; format: ADME, tissue-based; details: in vivo
Staphylococcus aureus [7] = assay: Inhibition of biofilm in Staphylococcus aureus ATCC 29213 at 1 ug/ml measured after 12 hrs by crystal violet staining based analysis; format: functional, organism-based; details: dose 1.0 µg/ml
Staphylococcus aureus [8] = assay: Antibacterial activity against methicillin-resistant Staphylococcus aureus NRS 194 assessed as reduction in bacterial growth measured after 18 to 24 hrs by broth microdilution method; format: functional; details: time 18-24 hrs
Staphylococcus aureus [9] = assay: Antibacterial activity against vacomycin-resistant Staphylococcus aureus VRS 12 assessed as reduction in bacterial growth measured after 18 to 24 hrs by broth microdilution method; format: functional; details: time 18-24 hrs
Staphylococcus aureus [10] = assay: Antibacterial activity against methicillin-resistant Staphylococcus aureus NRS 192 assessed as reduction in bacterial growth measured after 18 to 24 hrs by broth microdilution method; format: functional; details: time 18-24 hrs
Enterococcus faecalis = assay: Antibacterial activity against Enterococcus faecalis ATCC 35550 assessed as reduction in bacterial growth measured after 18 to 24 hrs by broth microdilution method; format: functional; details: time 18-24 hrs
Staphylococcus aureus [11] = assay: Antibacterial activity against methicillin-resistant Staphylococcus aureus NRS 198 assessed as reduction in bacterial growth measured after 18 to 24 hrs by broth microdilution method; format: functional; details: time 18-24 hrs
Escherichia coli = assay: Antibacterial activity against Escherichia coli ATCC 25922 assessed as reduction in bacterial growth measured after 18 to 24 hrs by broth microdilution method; format: functional; details: time 18-24 hrs
Staphylococcus aureus [12] = assay: Antibacterial activity against methicillin-resistant Staphylococcus aureus NRS 193 assessed as reduction in bacterial growth measured after 18 to 24 hrs by broth microdilution method; format: functional; details: time 18-24 hrs
Staphylococcus aureus [13] = assay: Antibiofilm activity in Staphylococcus aureus ATCC 29213 assessed as disruption of preformed biofilm at 5 times MIC measured after 24 hrs by crystal violet staining based assay relative to control; format: functional
Staphylococcus aureus [14] = assay: Antibacterial activity against methicillin-resistant Staphylococcus aureus NRS 100 assessed as reduction in bacterial growth measured after 18 to 24 hrs by broth microdilution method; format: functional; details: time 18-24 hrs
[15] = Solubility of the compound in distilled water; format: physicochemical; details: buffer
[16] = Drug distribution in female BALB/c mouse liver measured after 24 hrs; format: ADME, tissue-based; details: in vivo
Staphylococcus aureus [17] = assay: Antibacterial activity against Staphylococcus aureus ATCC 29213 assessed as reduction in bacterial growth measured after 18 to 24 hrs by broth microdilution method; format: functional; details: time 18-24 hrs
Staphylococcus aureus [18] = assay: Antibacterial activity against methicillin-resistant Staphylococcus aureus NRS 191 assessed as reduction in bacterial growth measured after 18 to 24 hrs by broth microdilution method; format: functional; details: time 18-24 hrs
[19] = Toxicity in female BALB/c mouse assessed as effect on body weight measured after 24 hrs; details: in vivo
Staphylococcus aureus [20] = assay: Antibacterial activity against Staphylococcus aureus ATCC 29213 infected in female BALB/c mouse skin infection model assessed as reduction in bacterial load at 10 times MIC pre-infected with bacteria followed by compound addition and measured after 24 hrs relative to control; format: functional; design: scale not given: the % may be the effect or the level left
Staphylococcus aureus [21] = assay: Antibacterial activity against methicillin-resistant Staphylococcus aureus NRS 129 assessed as reduction in bacterial growth measured after 18 to 24 hrs by broth microdilution method; format: functional; details: time 18-24 hrs
Staphylococcus aureus [22] = assay: Inhibition of biofilm in Staphylococcus aureus ATCC 29213 at 2 times MIC measured after 12 hrs by crystal violet staining based analysis relative to control; format: functional
[23] = Hemolytic activity in human Red blood cell at 32 ug/ml measured after 1 hrs by spectrophotometric analysis relative to control; format: toxicity, cell-based, Erythrocyte; details: red blood cells, at 32 µg/mL, read-out: Activity
Acinetobacter baumannii = assay: Antibacterial activity against Acinetobacter baumannii BAA 1605 assessed as reduction in bacterial growth measured after 18 to 24 hrs by broth microdilution method; format: functional; details: time 18-24 hrs
[24] = Drug distribution in female BALB/c mouse kidney measured after 24 hrs; format: ADME, tissue-based; details: in vivo
Staphylococcus aureus [25] = assay: Antibiofilm activity in Staphylococcus aureus ATCC 29213 assessed as disruption of preformed biofilm at 1 times MIC measured after 24 hrs by crystal violet staining based assay relative to control; format: functional
Klebsiella pneumoniae = assay: Antibacterial activity against Klebsiella pneumoniae BAA 1705 assessed as reduction in bacterial growth measured after 18 to 24 hrs by broth microdilution method; format: functional; details: time 18-24 hrs
Staphylococcus aureus [26] = assay: Antibacterial activity against Staphylococcus aureus ATCC 29213 measured after 20 passages; format: functional, organism-based
Staphylococcus aureus [27] = assay: Antibacterial activity against Staphylococcus aureus ATCC 29213 infected in female BALB/c mouse skin infection model assessed as log reduction in bacterial load at 10 times MIC pre-infected with bacteria followed by compound addition and measured after 24 hrs; format: functional
Staphylococcus aureus [28] = assay: Antibiofilm activity in Staphylococcus aureus ATCC 29213 assessed as disruption of preformed biofilm at 10 times MIC measured after 24 hrs by crystal violet staining based assay relative to control; format: functional
[29] = Toxicity in female BALB/c mouse assessed as effect on lung measured after 24 hrs by H and E staining based analysis; format: tissue-based; details: in vivo
Cell membrane [30] = assay: Induction of cytoplasmic membrane depolarization in Staphylococcus aureus ATCC 29213 assessed as fold increase in fluorescence intensity at 10 times MIC measured after 30 min by DiSC3-5 dye based fluorescence method; format: subcellular
Staphylococcus aureus [31] = assay: Bactericidal activity against Staphylococcus aureus ATCC 29213 at 4 to 8 time MIC measured after 8 hrs by time-kill assay; format: functional, organism-based
Cell membrane [32] = assay: Disruption of cell membrane in Staphylococcus aureus ATCC 29213 assessed as increase in PI uptake at 10 times MIC measured after 8 mins by fluorescence based microplate reader analysis
Staphylococcus aureus [33] = assay: Inhibition of biofilm in Staphylococcus aureus ATCC 29213 at 1 times MIC measured after 12 hrs by crystal violet staining based analysis relative to control; format: functional
Cell membrane [34] = assay: Disruption of cell membrane in Staphylococcus aureus ATCC 29213 assessed as increase in red fluorescence at 5 to 10 times MIC measured after 4 hrs by DAPI and PI staining based fluorescence microscopic analysis
Staphylococcus aureus [35] = assay: Antibiofilm activity in Staphylococcus aureus ATCC 29213 assessed as disruption of preformed biofilm at 20 times MIC measured after 24 hrs by crystal violet staining based assay relative to control; format: functional
[36] = Drug distribution in female BALB/c mouse lung measured after 24 hrs; format: ADME, tissue-based; details: in vivo
Staphylococcus aureus [37] = assay: Antibacterial activity against vacomycin-resistant Staphylococcus aureus VRS 4 assessed as reduction in bacterial growth measured after 18 to 24 hrs by broth microdilution method; format: functional; details: time 18-24 hrs

O=C(O)c1cccc(C(=O)Nc2c(C(c3ccc(F)cc3)c3ccc(F)cc3)cc(Cl)cc2C(c2ccc(F)cc2)c2ccc(F)cc2)c1
Drug uptake [1]: 9.01 nmol/mg
Activity [2]: Non-toxic
Activity (Staphylococcus aureus [3]): Active
MIC (Bacillus subtilis): 1 µg/mL (≈ 1.47 µM)
solubility [4]: 570 mg/mL (≈ 838000 µM)
inhibition (INH) (Staphylococcus aureus [5]): >50%
Drug uptake [6]: 7.7 nmol/mg
inhibition (Staphylococcus aureus [7]): Active
MIC (Staphylococcus aureus [8]): 2 µg/mL (≈ 2.94 µM)
MIC (Staphylococcus aureus [9]): 2 µg/mL (≈ 2.94 µM)
MIC (Staphylococcus aureus [10]): 2 µg/mL (≈ 2.94 µM)
MIC (Enterococcus faecalis): 1 µg/mL (≈ 1.47 µM)
MIC (Staphylococcus aureus [11]): 2 µg/mL (≈ 2.94 µM)
MIC (Escherichia coli): > 64 µg/mL
MIC (Staphylococcus aureus [12]): 2 µg/mL (≈ 2.94 µM)
Activity (Staphylococcus aureus [13]): 7.1%
MIC (Staphylococcus aureus [14]): 2 µg/mL (≈ 2.94 µM)
solubility [15]: Insoluble
Drug uptake [16]: 3.92 nmol/mg
MIC (Staphylococcus aureus [17]): 1 µg/mL (≈ 1.47 µM)
MIC (Staphylococcus aureus [18]): 2 µg/mL (≈ 2.94 µM)
Activity [19]: Non-toxic
Activity (Staphylococcus aureus [20]): ~83%
MIC (Staphylococcus aureus [21]): 2 µg/mL (≈ 2.94 µM)
inhibition (INH) (Staphylococcus aureus [22]): 95%
hemolysis at 1 h, 32 ug/ml [23]: 70%
MIC (Acinetobacter baumannii): > 64 µg/mL
Drug uptake [24]: 4.02 nmol/mg
Activity (Staphylococcus aureus [25]): 7.29%
MIC (Klebsiella pneumoniae): > 64 µg/mL
Activity (Staphylococcus aureus [26]): Active
Activity (Staphylococcus aureus [27]): 0.8 log10CFU/ml
Activity (Staphylococcus aureus [28]): 11.84%
Activity [29]: Non-toxic
fold change (FC) (Cell membrane [30]): 4
Activity (Staphylococcus aureus [31]): Active
Activity (Cell membrane [32]): Active
inhibition (INH) (Staphylococcus aureus [33]): 91%
Activity (Cell membrane [34]): Active
Activity (Staphylococcus aureus [35]): 18.42%
Drug uptake [36]: 9.91 nmol/mg
MIC (Staphylococcus aureus [37]): 2 µg/mL (≈ 2.94 µM)
